Results as given in patent publication US20250154686A1, “COMPOUND LIBRARY” (CHUGAI SEIYAKU KABUSHIKI KAISHA, priority 2021, published 2025).

Biological target: T1, Bcl-2 protein (Recombinant Human Bcl-2 Protein) (Homo sapiens, UniProt P10415)
T1 construct: purchased Novus Biologicals NBP2-34889
Assay: AS-MS evaluation of binding of the Example 4 mixture library (1200 compounds/well) to Bcl-2, ASMS ratio (%)
Procedure, shortened: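 A pooled 1200-compound mixture (20 nM each final) was incubated with 20 μM recombinant human Bcl-2 in pH 7.4 Tris-HCl buffer with NaCl, Tween-20 and DTT for 1 h at 23° C. in the dark. Bound ligands were separated by spin-column SEC and measured by reverse-phase LC/MS; ASMS ratio (%) was calculated against protein-free unfiltered standard and protein-free SEC blank.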

[1] = AS-MS, mixture of 1200 compounds/well, Bcl-2 protein, replicate n = 1
[2] = AS-MS, mixture of 1200 compounds/well, Bcl-2 protein, replicate n = 2
[3] = replicate n = 1, mixture library, value belongs to the MS peak assigned to the compound
[4] = replicate n = 2, mixture library, value belongs to the MS peak assigned to the compound
[5] = AS-MS, Example 4 mixture library, Bcl-2, replicate n = 2
[6] = AS-MS, Example 4 mixture library, Bcl-2, replicate n = 1

T1 sequence (P10415 whole entry): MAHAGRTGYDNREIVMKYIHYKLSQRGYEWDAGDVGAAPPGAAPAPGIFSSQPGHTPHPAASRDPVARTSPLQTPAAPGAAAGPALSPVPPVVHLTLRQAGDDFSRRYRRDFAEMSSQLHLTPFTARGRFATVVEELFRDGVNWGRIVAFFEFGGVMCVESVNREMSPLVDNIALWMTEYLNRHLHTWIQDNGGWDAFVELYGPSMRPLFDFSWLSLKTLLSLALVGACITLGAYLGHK

SMILES	ASMS ratio (%) n = 1 [3]	ASMS ratio (%) n = 2 [4]	ASMS ratio (%) n = 2 [5]	ASMS ratio (%) n = 1 [6]	further results
CCCNC(=O)c1ccc(N2CCN(C(=O)c3cc(-c4cncc(OCC)c4)cc(C(F)(F)F)c3)CC2)nn1 [Compound B1M018-01]					ASMS ratio (%) n = 1 [1]: 0.0%; ASMS ratio (%) n = 2 [2]: 0.0%
CCOc1cccc(-c2ccccc2CN2CCN(c3ccc(C(=O)NS(C)(=O)=O)nn3)CC2)c1 [Compound B2I071-01, 6-[4-[[2-(3-Ethoxyphenyl)phenyl]methyl]piperazin-1-yl]-N-methylsulfonylpyridazine-3-carboxamide]	−1.2%	−1.9%			
CCOc1cncc(-c2ccc(CN3CCN(c4ccc(C(=O)NS(C)(=O)=O)cc4)CC3)cc2F)c1 [Compound B2I052-01, 4-[4-[[4-(5-Ethoxypyridin-3-yl)-3-fluorophenyl]methyl]piperazin-1-yl]-N-methylsulfonylbenzamide]	0.0%	0.0%			
CCOc1cccc(-c2cc(CN3CCN(c4ccc(C(=O)NS(C)(=O)=O)nn4)CC3)cc(OC(F)(F)F)c2)c1 [Compound B2I089-01, 6-[4-[[3-(3-Ethoxyphenyl)-5-(trifluoromethoxy)phenyl]methyl]piperazin-1-yl]-N-methylsulfonylpyridazine-3-carboxamide]	1.4%	0.0%			
CCOc1cncc(-c2csc(CN3CCN(c4ccc(C(=O)NS(=O)(=O)CCC(F)(F)F)nn4)CC3)c2)c1 [Compound B2N094-01, 6-[4-[[4-(5-Ethoxypyridin-3-yl)thiophen-2-yl]methyl]piperazin-1-yl]-N-(3,3,3-trifluoropropylsulfonyl)pyridazine-3-carboxamide]			0.0%	0.0%	
CCOc1cccc(-c2ccc(C(=O)N3CCN(c4ccc(C(=O)NS(=O)(=O)C(C)(C)C)cc4)CC3)cc2C)c1 [Compound B2L025-01, N-tert-Butylsulfonyl-4-[4-[4-(3-ethoxyphenyl)-3-methylbenzoyl]piperazin-1-yl]benzamide]	0.0%	0.0%			
CCOc1cccc(-c2cc(CN3CCN(c4ccc(C(=O)NS(=O)(=O)CCC(F)(F)F)cc4)CC3)cc(C(F)(F)F)c2)c1 [Compound B2N061-01]			0.0%	0.0%	
CCOc1cccc(-c2csc(CN3CCN(c4ccc(C(=O)NS(C)(=O)=O)cc4)CC3)c2)c1 [Compound B2I067-01, 4-[4-[[4-(3-Ethoxyphenyl)thiophen-2-yl]methyl]piperazin-1-yl]-N-methylsulfonylbenzamide]	0.0%	0.0%			
CCOc1cncc(-c2cc(C(=O)N3CCN(c4ccc(C(=O)NS(=O)(=O)C(C)(C)C)nn4)CC3)cc(C(C)(C)C)c2)c1 [Compound B2L016-01, 6-[4-[3-tert-Butyl-5-(5-ethoxypyridin-3-yl)benzoyl]piperazin-1-yl]-N-tert-butylsulfonylpyridazine-3-carboxamide]	0.0%	−5.4%			
CCCNC(=O)c1ccc(N2CCN(C(=O)c3cc(-n4cc(-c5cccc(OCC)c5)cn4)cc(C(F)(F)F)c3)CC2)nn1 [Compound B1M021-01]					ASMS ratio (%) n = 1 [1]: 0.0%; ASMS ratio (%) n = 2 [2]: 0.0%
CCOc1cccc(C#Cc2ccccc2CN2CCN(c3ccc(C(=O)NS(=O)(=O)C(C)(C)C)cc3)CC2)c1 [Compound B2L069-01, N-tert-Butylsulfonyl-4-[4-[[2-[2-(3-ethoxyphenyl)ethynyl]phenyl]methyl]piperazin-1-yl]benzamide]	0.0%	0.0%			
CCOc1cccc(-c2ccc(CN3CCN(c4ccc(C(=O)NS(C)(=O)=O)cc4)CC3)c3ccccc23)c1 [Compound B2I065-01, 4-[4-[[4-(3-Ethoxyphenyl)naphthalen-1-yl]methyl]piperazin-1-yl]-N-methylsulfonylbenzamide]	0.0%	0.0%			
CCOc1cccc(-c2cc(CN3CCN(c4ccc(C(=O)NS(C)(=O)=O)nn4)CC3)cc(C(F)(F)F)c2)c1 [Compound B2I087-01, 6-[4-[[3-(3-Ethoxyphenyl)-5-(trifluoromethyl)phenyl]methyl]piperazin-1-yl]-N-methylsulfonylpyridazine-3-carboxamide]	1.3%	−0.9%			
CCOc1cncc(-c2ccc(CN3CCN(c4ccc(C(=O)NS(C)(=O)=O)nn4)CC3)c3ccccc23)c1 [Compound B2I092-01, 6-[4-[[4-(5-Ethoxypyridin-3-yl)naphthalen-1-yl]methyl]piperazin-1-yl]-N-methylsulfonylpyridazine-3-carboxamide]	2.6%	0.3%			
CCOc1cccc(-c2ccc(CN3CCN(c4ccc(C(=O)NS(=O)(=O)C(C)(C)C)nn4)CC3)cc2C)c1 [Compound B2L073-01]	0.0%	0.0%			
CCOc1cccc(-c2cc(OC)c(CN3CCN(c4ccc(C(=O)NS(C)(=O)=O)nn4)CC3)c(OC)c2)c1 [Compound B2I085-01, 6-[4-[[4-(3-Ethoxyphenyl)-2,6-dimethoxyphenyl]methyl]piperazin-1-yl]-N-methylsulfonylpyridazine-3-carboxamide]	0.0%	0.0%			
CCOc1cccc(-c2ccc(CN3CCN(c4ccc(C(=O)NS(C)(=O)=O)cc4)CC3)cc2C)c1 [Compound B2I047-01, 4-[4-[[4-(3-Ethoxyphenyl)-3-methylphenyl]methyl]piperazin-1-yl]-N-methylsulfonylbenzamide]	0.8%	1.4%			
CCOc1cncc(-c2cnn(-c3cc(C(=O)N4CCN(c5ccc(C(=O)NS(=O)(=O)CCC(F)(F)F)nn5)CC4)cc(C(F)(F)F)c3)c2)c1 [Compound B2N022-01, 6-[4-[3-[4-(5-Ethoxypyridin-3-yl)pyrazol-1-yl]-5-(trifluoromethyl)benzoyl]piperazin-1-yl]-N-(3,3,3-trifluoropropylsulfonyl)pyridazine-3-carboxamide]			0.0%	0.0%	
CCOc1cncc(-c2csc(CN3CCN(c4ccc(C(=O)NS(=O)(=O)C(C)(C)C)cc4)CC3)c2)c1 [Compound B2L068-01]	0.0%	0.0%			

Second part, led by results:

ASMS ratio (%) n = 1 [3]	ASMS ratio (%) n = 2 [4]	ASMS ratio (%) n = 2 [5]	ASMS ratio (%) n = 1 [6]	SMILES	further results
		0.0%		CCOc1cccc(-c2cnn(-c3cc(C(=O)N4CCN(c5ccc(C(=O)NS(=O)(=O)CCC(F)(F)F)nn5)CC4)cc(C(F)(F)F)c3)c2)c1 [Compound B2N021-01, 6-[4-[3-[4-(3-Ethoxyphenyl)pyrazol-1-yl]-5-(trifluoromethyl)benzoyl]piperazin-1-yl]-N-(3,3,3-trifluoropropylsulfonyl)pyridazine-3-carboxamide]	
		0.0%	24.0%	CCOc1cccc(-c2ccc(CN3CCN(c4ccc(C(=O)NS(=O)(=O)c5ccc(NCCSc6ccccc6)c(C(F)(F)F)c5)nn4)CC3)cc2C)c1 [Compound B2R073-01, 6-[4-[[4-(3-Ethoxyphenyl)-3-methylphenyl]methyl]piperazin-1-yl]-N-[4-(2-phenylsulfanylethylamino)-3-(trifluoromethyl)phenyl]sulfonylpyridazine-3-carboxamide]	
0.0%	0.0%			CCOc1cccc(-c2ccc(C(=O)N3CCN(c4ccc(C(=O)NS(=O)(=O)C(C)(C)C)cc4)CC3)cc2F)c1 [Compound B2L027-01, N-tert-Butylsulfonyl-4-[4-[4-(3-ethoxyphenyl)-3-fluorobenzoyl]piperazin-1-yl]benzamide]	
		−0.9%	−0.7%	CCOc1cncc(-c2ccc(C(=O)N3CCN(c4ccc(C(=O)NS(=O)(=O)CCC(F)(F)F)cc4)CC3)cc2F)c1 [Compound B2N028-01, 4-[4-[4-(5-Ethoxypyridin-3-yl)-3-fluorobenzoyl]piperazin-1-yl]-N-(3,3,3-trifluoropropylsulfonyl)benzamide]	
		5.3%	22.4%	CCOc1cncc(-c2cc(CN3CCN(c4ccc(C(=O)NS(=O)(=O)c5ccc(NCCSc6ccccc6)c(C(F)(F)F)c5)nn4)CC3)cc(OC(F)(F)F)c2)c1 [Compound B2R090-01, 6-[4-[[3-(5-Ethoxypyridin-3-yl)-5-(trifluoromethoxy)phenyl]methyl]piperazin-1-yl]-N-[4-(2-phenylsulfanylethylamino)-3-(trifluoromethyl)phenyl]sulfonylpyridazine-3-carboxamide]	
		39.5%	44.0%	CCOc1cccc(-c2ccc(C(=O)N3CCN(c4ccc(C(=O)NS(=O)(=O)c5ccc(NCCSc6ccccc6)c(C(F)(F)F)c5)nn4)CC3)cc2F)c1 [Compound B2R005-01, 6-[4-[4-(3-Ethoxyphenyl)-3-fluorobenzoyl]piperazin-1-yl]-N-[4-(2-phenylsulfanylethylamino)-3-(trifluoromethyl)phenyl]sulfonylpyridazine-3-carboxamide]	
		−5.1%	5.7%	CCOc1cccc(-c2cc(CN3CCN(c4ccc(C(=O)NS(=O)(=O)c5ccc(NCCSc6ccccc6)c(C(F)(F)F)c5)cc4)CC3)cc(OC(C)C)c2)c1 [Compound B2R057-01, 4-[4-[[3-(3-Ethoxyphenyl)-5-propan-2-yloxyphenyl]methyl]piperazin-1-yl]-N-[4-(2-phenylsulfanylethylamino)-3-(trifluoromethyl)phenyl]sulfonylbenzamide]	
		−2.0%	1.2%	CCOc1cncc(-c2ccc(C(=O)N3CCN(c4ccc(C(=O)NS(=O)(=O)CCC(F)(F)F)nn4)CC3)cc2C)c1 [Compound B2N004-01, 6-[4-[4-(5-Ethoxypyridin-3-yl)-3-methylbenzoyl]piperazin-1-yl]-N-(3,3,3-trifluoropropylsulfonyl)pyridazine-3-carboxamide]	
